Measured values: US20240131032A1, “AN ACTIVITY-GUIDED MAP OF ELECTROPHILE-CYSTEINE INTERACTIONS IN PRIMARY HUMAN IMMUNE CELLS” (The Scripps Research Institute, priority 2019, published 2024)

Key:
primary human T cells = assay: T cell viability by flow cytometry (near-IR LIVE/DEAD stain); format: cell-based; settings: for cytotoxicity: concentration-dependent profiles, at <20 μM
Method: FIG. 4A-4D is an overview of a multidimensional screen to identify elaborated electrophilic compounds that suppress T cell activation. FIG. 4A is a workflow for T-cell activation screen. Primary human T cells were treated with a focused library of elaborated electrophilic compounds (10 μM, structures of compounds in FIG. 12), a positive control immunosuppressive compound (DMF, 50 μM), or DMSO under TCR-stimulating conditions in 96-well plates pre-coated with 5 μg/mL αCD3 and 2 μg/mL αCD28 for 24 h. T cell activation was measured using a combination of markers, including IL2 and IFNγ secretion, as well as surface expression of CD25 and CD69. T cell viability was measured by flow cytometry using a Fixable Near-IR LIVE/DEAD™ Cell Stain. Compounds were considered as active hits if they reduced IL2 cytokine production by >65% with <15% reduction in T cell viability in the cytotoxicity assay compared to DMSO control. […] FIG. 4C are structures of active hit compounds selected for follow-up studies, including two acrylamides (BPK-21, BPK-25), two chloroacetamides (EV-3, EV-93) and DMF as a positive control. FIG. 4D are line graphs showing T cell activation and cytotoxicity profiles for selected hit compounds.
Non-tissue culture treated 96-well plates were pre-coated with αCD3 (5 μg/mL) and αCD28 antibodies (2 μg/mL) in PBS (100 μL/well) and left at 4° C. overnight. Freshly isolated T cells were re-suspended in RPMI media supplemented with 10% FBS, L-glutamine (2 mM), penicillin (100 U/mL), and streptomycin ([…]) at 2×10^6 cells/mL. Compound stocks (200×) in DMSO were diluted to 2× stocks in the working RPMI media in another 96-well plate. The pre-coated 96-well treatment plates were washed with PBS ([…]), T cells (100 μL/well, 2×10^5 cells/well) were then added to the wells, followed by the addition of 2× compound stocks in RPMI media (100 μL). The outer wells of the plates were filled with media without cells to avoid the edge effect in the assay. The treatment was done overnight (24 h) at 37° C. in a 5% CO2 containing incubator. Following the treatment, the cells were transferred to a U-bottom 96-well plate and harvested by centrifugation (600 g, 3 min, 4° C.). The supernatants were kept and stored at −80° C. for further cytokine analysis, while the cells were washed with PBS (2×150 μL) prior to staining for flow cytometry analysis.
Following the PBS washes, the cells were stained with fixable near-IR LIVE/DEAD cell stain (Invitrogen) according to manufacturer's instructions. Briefly, one vial of near-IR LIVE/DEAD dye was resuspended in DMSO (50 μL) and diluted with PBS (1:1000). The diluted stain was added to each well (200 μL) and the cells were incubated for 30 min at room temperature in the dark. After this time, the cells were pelleted (600 g, 3 min, 4° C.), washed once with PBS (200 μL/well) and incubated with a freshly made cocktail of antibodies for the appropriate cell surface markers diluted in PBS containing 2% FBS (1:400 antibody dilution).

FAM213B and HLA-F = assay: Expression-based proteomics (TMT-exp) of compound-treated T cells, FAM213B and HLA-F; format: cell-based, human; settings: 24 h; >3000 total proteins quantified
Method: FIG. 7B is a scatter plot representation of protein abundance changes caused by BPK-25 (10 μM, 24 h) in two independent replicate experiments, with decreases in NuRD complex components highlighted in red. FIG. 7C is a heatmap of top proteins with decreased abundance in BPK-25-treated T cells showing that the subset of these proteins in the NuRD complex (asterisks) were largely unaltered by other active compounds and blocked in their degradation by co-treatment with the proteasome inhibitor MG132. […] FIG. 7E is a bar graph […] showing time-dependent reductions in NuRD complex members in human T cells treated with BPK-25 (10 μM). Left, representative western blots. Right, quantification of changes in protein. […] FIG. 7G is a heat map showing the changes in cysteine reactivity for NuRD complex members in human T cells treated with BPK-25 and other active compounds.
Freshly isolated T cells (1.6×10^7 cells, 2×10^6 cells/mL in RPMI media) were treated with compound or DMSO for 24 h, pelleted (600 g, 5 min), and washed with PBS (1×10 mL). The cells were then transferred to an Eppendorf tube in additional PBS (1 mL), pelleted (600 g, 5 min), flash frozen, and kept at −80° C. until further analysis. […]
At individual TMT experiment level, the following filters were applied to remove low-quality peptides: removal of non-unique peptides; removal of half-tryptic peptides; removal of peptides with more than one internal miscleaved site; removal of cysteine-containing peptides; removal of peptides with low (<10,000) sum of reporter ion intensities for control channels, and peptides with high variation between the replicate control channels (coefficient of variance >0.5). R values (compound-treated vs. DMSO-treated) were calculated using the reporter ion intensities of compound and DMSO treated TMT channels for each treatment group. […] Proteins were required to have at least two unique quantified peptides in each experiment and were quantified in at least two independent experiments.

| Compound | cytotoxicity (primary human T cells) | reductions in FAM213B and HLA-F (FAM213B and HLA-F) | viability (primary human T cells; electrophilic compounds 10 μM each (DMF 50 μM), 24 h) [%] |
| --- | --- | --- | --- |
| O=C(CCl)N1CCN(S(=O)(=O)c2ccc(-c3ccncc3)cc2)CC1 [EV-3] | negligible cytotoxicity | also affected | – |
| C=CC(=O)N(Cc1cccc(Cl)n1)c1ccc(C(=O)Nc2ccccc2)nc1 [BPK-25] | negligible cytotoxicity | > 50% | – |
| COC(=O)/C=C/C(=O)OC [DMF, reference compound] | – | – | > 85 |
| C=CC(=O)N(Cc1cccc(Cl)c1Cl)c1ccc(Oc2ccccc2)c(C(F)(F)F)c1 [BPK-21] | negligible cytotoxicity | also affected | – |
